The subject of one data set is Factor VII. The data set is described as follows: In vivo mouse Factor VII silencing model (FVII siRNA in lipid formulations, serum FVII chromogenic assay). More on the design: species or system C57Bl/6 mice. To be noted: for Lipid B ED50: Lipid B by itself, formulation 40:10:40:10; for % residual FVII: 40% cationic lipid/10% DSPC/40% cholesterol/10% PEG-DMG, FIG. 4; for ED50: dose giving 50% reduction in plasma FVII vs control animals, i.v. tail vein, 24 h, FVII siRNA formulation. How it is done:
C57BL/6 mice (Charles River Labs, MA) received either saline or siRNA in desired formulations via tail vein injection at a volume of 0.01 mL/g. At various time points post-administration, animals were anesthesized by isofluorane inhalation and blood was collected into serum separator tubes by retro orbital bleed. Serum levels of Factor VII protein were determined in samples using a chromogenic assay (Coaset Factor VII, DiaPharma Group, OH or Biophen FVII, Aniara Corporation, OH) according to manufacturer protocols. A standard curve was generated using serum collected from saline treated animals. In experiments where liver mRNA levels were assessed, at various time points post-administration, animals were sacrificed and livers were harvested and snap frozen in liquid nitrogen. Frozen liver tissue was ground into powder. Tissue lysates were prepared and liver mRNA levels of Factor VII and apoB were determined using a branched DNA assay (QuantiGene Assay, Panomics, CA).
Factor VII (FVII), a prominent protein in the coagulation cascade, is synthesized in the liver (hepatocytes) and secreted into the plasma. FVII levels in plasma can be determined by a simple, plate-based colorimetric assay. As such, FVII represents a convenient model for determining sirna-mediated downregulation of hepatocyte-derived proteins, as well as monitoring plasma concentrations and tissue distribution of the nucleic acid lipid particles and siRNA.
C57BL/6 mice (Charles River Labs, MA) received either saline or formulated siRNA via tail vein injection. At various time points after administration, serum samples were collected by retroorbital bleed. Serum levels of Factor VII protein were determined in samples using a chromogenic assay (Biophen FVII, Aniara Corporation, OH). To determine liver mRNA levels of Factor VII, animals were sacrificed and livers were harvested and snap frozen in liquid nitrogen. Tissue lysates were prepared from the frozen tissues and liver mRNA levels of Factor VII were quantified using a branched DNA assay (QuantiGene Assay, Panomics, CA).
FVII activity was evaluated in FVII siRNA-treated animals at 48 hours after intravenous (bolus) injection in C57BL/6 mice. FVII was measured using a commercially available kit for determining protein levels in serum or tissue, following the manufacturer's instructions at a microplate scale. FVII reduction was determined against untreated control mice, and the results were expressed as % Residual FVII. Two dose levels (0.05 and 0.005 mg/kg FVII siRNA) were used in the screen of each novel liposome composition.
Test formulations were initially assessed for their FVII knockdown in female 7-9 week old, 15-25 g, female C57B1/6 mice at 0.1, 0.3, 1.0 and 5.0 mg/kg with 3 mice per treatment group. All studies included animals receiving either phosphate-buffered saline (PBS, Control group) or a benchmark formulation. Formulations were diluted to the appropriate concentration in PBS immediately prior to testing. Mice were weighed and the appropriate dosing volumes calculated (10 μl/g body weight). Test and benchmark formulations as well as PBS (for Control animals) were administered intravenously via the lateral tail vein. Animals were anesthetised 24 h later with an intraperitoneal injection of Ketamine/Xylazine and 500-700 μl of blood was collected by cardiac puncture into serum separator tubes (BD Microtainer). Blood was centrifuged at 2,000×g for 10 min at 15° C. and serum was collected and stored at −70° C. until analysis. Serum samples were thawed at 37° C. for 30 min, diluted in PBS and aliquoted into 96-well assay plates. Factor VII levels were assessed using a chromogenic assay (Biophen FVII kit, Hyphen BioMed) according to manufacturer's instructions and absorbance measured in microplate reader equipped with a 405 nm wavelength filter. […]

Data set [1] in a line: Determination of pKa of formulated lipids with the fluorescent probe TNS. As to conditions: for pKa: TNS assay, vesicles cationic lipid/DSPC/CH/PEG-c-DOMG 40:10:40:10.
Experimental: The pKa values for the different ionizable cationic lipids were determined essentially as described (Eastman et al., 1992 Biochemistry 31:4262-4268, which is incorporated by reference in its entirety) using the fluorescent probe 2-(p-toluidino)-6-naphthalenesulfonic acid (TNS), which is non-fluorescent in water but becomes appreciably fluorescent when bound to membranes. Vesicles composed of cationic lipid/DSPC/CH/PEG-c-DOMG (40:10:40:10 mole ratio) were diluted to 0.1 mM in buffers (130 mM NaCl, 10 mM CH3COONH4, 10 mM MES, 10 mM HEPES) of various pH values ranging from 2 to 11. An aliquot of the TNS aqueous solution (1 μM final) was added to the diluted vesicles and after a 30 second equilibration period the fluorescent of the TNS-containing solution was measured at excitation and emission wavelengths of 321 nm and 445 nm, respectively. The pKa of the cationic lipid-containing vesicles was determined by plotting the measured fluorescence against the pH of the solutions and fitting the data to a Sigmodial curve using the commercial graphing program IgorPro.
Where [2] appears, read: probe 2-(p-toluidino)-6-naphthalenesulfonic acid (TNS), 1 µM final, pKa.

The structures appear in SMILES notation.

Consider `CCCCC/C=C\C/C=C\CCCCCCCCC(CCCCCCC/C=C\C/C=C\CCCCC)OC(=O)CCC[N+](C)(C)C` (stereo not shown) [DLin-M-C3-TMA], for which, in the data set on Factor VII, the “Lipid B ED50” value is given as over 1.00 mg/kg. In addition, the pKa (in general, the negative logarithm of the acid dissociation constant) in data set [1] (setting [2]) was over 1.
Take `CCCCC/C=C\C/C=C\CCCCCCCCC(CCCCCCCC/C=C\C/C=C\CCCCC)OC(=O)CCCCN(C)C` [DLin-M-C4-DMA]: the “% residual FVII” value in the data set with Factor VII (0.05 mg/kg siRNA) and in the data set with Factor VII (0.10 mg/kg siRNA) was “about 90%” throughout. Further, the “Lipid B ED50” value with Factor VII is 0.150 mg/kg. Further, the ED50 (usually the dose that gives a 50% effect, or the effect in half of the subjects) in the data set with Factor VII is on record as 0.15 mg/kg. In addition, in data set [1] (Lipid B by itself, formulation 40:10:40:10), the “Lipid B pKa (±0.2)” value was determined as 6.93. This compound also registered a pKa in data set [1] of 6.93.
In turn, `CCCCC/C=C\C/C=C\CCCCCCCCOC(=O)C(CCN(C)C)C(=O)OCCCCCCCC/C=C\C/C=C\CCCCC` [DLin-MAL-C2-DMA] displayed an ED50 in the data set with Factor VII of 1.50 mg/kg. Further, in data set [1] (setting [2]), the pKa is 6.66.

Source of the values: patent US20160317676A1, “METHODS AND COMPOSITIONS FOR DELIVERY OF NUCLEIC ACIDS” (Tekmira Pharmaceuticals Corporation, priority 2009, published 2016).
